# In patent US9315522B2, “Antibacterial compounds” (JANSSEN SCIENCES IRELAND UC, priority 2012, dated 2016):
# Where “and” joins values, the source holds several entries; their conditions need not be identical. Equal entries are not always repeated.
# Tests used:
# [1] = Cytotoxicity MTT assay (HELAM); type: cell-based, Human; details: human, HelaM cells, read-out: HELAM (222.125) CC50
# Method: Cytotoxicity of the compounds was evaluated using the MTT assay. Human HelaM cells grown in 96-well plates were exposed to serial dilutions of the tested compounds (final volume of 0.2 ml) and incubated for 72 hours at 37° C. and 5% CO2. Inhibitors are typically varied over the range of 25 to 0.8 μM. The final DMSO concentration in the assay is 0.5%. MTT (3-(4,5-Dimethylthiazol-2-yl)-2,5-diphenyltetrazolium bromide, a tetrazole) was added and reduced to purple formazan only in living cells. Solubilization of the formazan crystals was achieved by adding 100 μl 2-propanol. Cell viability was determined by measuring the absorbance of the reduced formazan, giving a purple color, at 540 nm and 690 nm. The absorbance measured at 690 nm was automatically subtracted from the absorbance at 540 nm, to eliminate the effects of non-specific absorption. The percent cytotoxicity achieved by the compounds was calculated according to standard methods. Cytotoxicity is reported as CC50, the concentration that causes a 50% reduction in cell viability.
# The results are depicted in the table(s) below (HELAM).
# [2] = molecular target: T1, S. aureus ATCC 29213 FabI (Staphylococcus aureus, UniProt Q6GI75); assay: Staphylococcus aureus FabI enzyme inhibition assay; type: biochemical; details: read-out: FabI (300.235) IC50 (converted)
# T1 sequence (Q6GI75 1-256): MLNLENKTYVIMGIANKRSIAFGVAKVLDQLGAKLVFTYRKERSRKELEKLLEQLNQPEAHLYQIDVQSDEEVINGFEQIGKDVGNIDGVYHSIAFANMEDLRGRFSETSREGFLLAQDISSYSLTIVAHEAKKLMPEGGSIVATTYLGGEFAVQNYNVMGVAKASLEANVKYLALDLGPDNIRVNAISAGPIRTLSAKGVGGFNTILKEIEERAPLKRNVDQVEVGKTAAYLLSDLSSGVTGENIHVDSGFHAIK
# Method: Y.1 FabI Enzyme Inhibition: Staphylococcus aureus FabI Enzyme Inhibition Assay
# FabI enzyme inhibition assays were carried out in half-area, 384-well microtitre plates. Compounds were evaluated in 40-μl assay mixtures containing 100 mM NaADA, pH 6.5 (ADA=N-[2-acetamido]-2iminodiacetic acid), 250 μM crotonoyl-CoA, 625 μM NADH and 50 μg/ml S. aureus ATCC 29213 FabI. Inhibitors were typically varied over the range of 50 to 0.39 μM. The reaction mixtures were incubated for 30 minutes at room temperature and the reaction was stopped by adding 200 mM Tris buffer (pH 9.0) to create a pH-shift. The consumption of NADH was monitored by measuring the change in absorbance at […]. By comparing sample readings to those of negative (absence of compound) and positive (absence of enzyme) controls, the percent inhibition of enzymatic activity of the compounds was determined A best-fit curve is fitted by a minimum of squares method. From this an IC50-value (expressed in μg/ml), resulting in 50% inhibition of enzymatic activity, was obtained.
# [3] = tested on: Staphylococcus aureus ATCC 29213; assay: Antibacterial susceptibility testing, IC90 determination (STA); type: cell-based; details: Staphylococcus aureus, ATCC29213, Staphylococcus aureus ATCC 29213, broth microdilution, resazurin; read-out: STA (361.159) IC90
# Method: (§1) The following bacteria were used: Staphylococcus aureus ATCC 29213, methicillin-resistant Staphylococcus aureus (MRSA) ATCC 700788 and Escherichia coli ATCC 35218. The bacteria used in this study were grown overnight in flasks containing 100 ml Mueller-Hinton broth (Difco cat. nr. 0757-17) in sterile de-ionized water, with shaking, at 37° C. Stocks were store at −70° C. until use.
# (§2) Bacteria were incubated on a tryptic soy agar plate containing 5% sheep blood (Becton Dickinson cat. nr. 254053) for 18-24 hours at 35° C. in aerobic conditions (first passage). For the second passage, fresh Mueller-Hinton broth is inoculated with 5-10 colonies and grown overnight at 35° C. until turbidity (reaching log-phase) in aerobic conditions is reached. The bacterial suspension is then adjusted to 0.5 McFarland density and further diluted 1:100 in Mueller Hinton broth medium. This is used as inoculum.
# The result(s) are depicted the table below (for STA ATCC 29213).
# (§3) MIC assays were performed by the broth microdilution method in a 96-well format (flat-bottom microtitre plates) with a final volume of 0.1 ml Mueller Hinton broth containing two-fold serial dilutions of compounds and inoculated with 5×10^5 CFU/ml of bacteria (standard inoculum size according to CLSI guidelines). Inhibitors are typically varied over the range of 63 to 0.49 μM. The final DMSO concentration in the assay was 1.25% (maximum tolerable DMSO concentration=6%). In the assays where the effect of human serum on the activity of the compounds against S. aureus was tested, human serum was added at a final concentration of 10%. The plates were incubated at 35° C. for 16-20 hours. At the end of incubation the bacterial growth was quantified fluorometrically. For this, resazurin was added to all wells and the plates were re-incubated. The incubation time is dependent on the type of bacteria. A change in color from blue to pink indicated the growth of bacteria. The fluorescence was read in computer-controlled fluorometer (Fluoroskan Ascent FL, Labsystems) at an excitation wavelength 540 nm and an emission wavelength of 590 nm. The % growth inhibition achieved by the compounds was calculated according to standard methods. The IC90 (expressed in μg/ml) was defined as the 90% inhibitory concentration for bacterial growth. A panel of reference compounds were simultaneously tested for QC approval.
# S. aureus = assay: Antibacterial susceptibility testing, IC90 determination with 10% human serum (STA + 10% HS); type: cell-based, Staphylococcus aureus; details: Staphylococcus aureus, human serum at final concentration of 10%, read-out: STA + 10% HS (361.169) IC90
# Method: as §1, §2, §3
# The results are depicted in the table(s) below (STA+10% HS).
Compound,IC50 [2],IC90 [3],melting point,IC90 (S. aureus),CC50 at 72 h [1]
Cc1cncc(C(=O)Nc2ccc(/C=C/C(=O)N3CC4C=C(c5ccsc5)CC4C3)cn2)c1 (stereo not shown) [compound 5],1730 nM,< 0.22 µg/mL,208.43 °C,0.36 µg/mL,10.1 µg/mL
Cc1cncc(C(=O)Nc2ccc(/C=C/C(=O)N3CC4C=C(c5ccncc5)CC4C3)cn2)c1 (stereo not shown) [compound 8],1240 nM,0.316 µg/mL,202.82 °C,0.398 µg/mL,> 11.3 µg/mL
Cc1occc1C(=O)Nc1ccc(/C=C/C(=O)N2CC3C=C(c4ccccc4)CC3C2)cn1 (stereo not shown) [compound 11],3230 nM,0.47 µg/mL,140 °C,3.33 µg/mL,5.16 µg/mL
Nc1ccc(/C=C/C(=O)N2CC3C=C(c4ccccc4)CC3C2)cn1 (stereo not shown) [compound 15],2350 nM,1.23 µg/mL,236 °C,2.43 µg/mL,> 8.32 µg/mL
Cc1cncc(C(=O)Nc2ccc(/C=C/C(=O)N3CC4C=C(c5ccnn5C)CC4C3)cn2)c1 (stereo not shown) [compound 16],1320 nM,1.25 µg/mL,173.34 °C,1.63 µg/mL,> 11.4 µg/mL
COC(=O)CCC(=O)Nc1ccc(/C=C/C(=O)N2CC3C=C(c4ccccc4)CC3C2)cn1 (stereo not shown) [compound 18],2560 nM,1.6 µg/mL,216 °C and 216.42 °C,3.05 µg/mL,> 11.2 µg/mL
Cc1cc(C(=O)Nc2ccc(/C=C/C(=O)N3CC4C=C(c5ccccc5)CC4C3)cn2)c(C)o1 (stereo not shown) [compound 19],4670 nM,1.61 µg/mL,184.41 °C,16.1 µg/mL,10.8 µg/mL
COc1cncc(C(=O)Nc2ccc(/C=C/C(=O)N3CC4C=C(c5ccncc5)CC4C3)cn2)c1 (stereo not shown) [compound 30],1390 nM,< 0.23 µg/mL,142 °C,< 0.23 µg/mL,> 11.7 µg/mL
COc1cncc(C(=O)Nc2ccc(/C=C/C(=O)N3CC4C=C(c5ccnn5C)CC4C3)cn2)c1 (stereo not shown) [compound 31],659 nM,0.72 µg/mL,89.36 °C,0.86 µg/mL,> 11.8 µg/mL
COc1cncc(C(=O)Nc2ccc(/C=C/C(=O)N3CC4C=C(c5nccs5)CC4C3)cn2)c1 (stereo not shown) [compound 32],718 nM,< 0.23 µg/mL,207 °C,< 0.23 µg/mL,> 11.9 µg/mL
COc1cncc(C(=O)Nc2ccc(/C=C/C(=O)N3CC4C=C(c5ccsc5)CC4C3)cn2)c1 (stereo not shown) [compound 33],1290 nM,< 0.23 µg/mL,205 °C,< 0.23 µg/mL,> 11.9 µg/mL
O=C1Nc2ncc(/C=C/C(=O)N3CC4C=C(c5ccsc5)CC4C3)cc2CO1 (stereo not shown) [compound 35],839 nM,0.16 µg/mL,> 250 °C,0.37 µg/mL,> 3.93 µg/mL
O=C1COc2cc(/C=C/C(=O)N3CC4C=C(c5ccncc5)CC4C3)cnc2N1 (stereo not shown) [compound 36],1130 nM,0.16 µg/mL,> 260 °C,< 0.08 µg/mL,> 3.88 µg/mL
O=C1COCc2cc(/C=C/C(=O)N3CC4C=C(c5ccccc5)CC4C3)cnc2N1 (stereo not shown) [compound 39],~1620 nM,< 0.19 µg/mL,266.57 °C and 266.6 °C,0.35 µg/mL,> 10.1 µg/mL
O=C1COCc2cc(/C=C/C(=O)N3CC4C=C(c5ccsc5)CC4C3)cnc2N1 (stereo not shown) [compound 41],1030 nM,< 0.2 µg/mL,152 °C,0.23 µg/mL,> 10.2 µg/mL
O=C1COCc2cc(/C=C/C(=O)N3CC4C=C(c5nccs5)CC4C3)cnc2N1 (stereo not shown) [compound 49],~930 nM,0.25 µg/mL,260.34 °C,0.24 µg/mL,> 10.3 µg/mL
CN1CC(=O)Nc2ncc(/C=C/C(=O)N3CC4C=C(c5ccccc5)CC4C3)cc2C1 (stereo not shown) [compound 50],965 nM,0.35 µg/mL,202 °C,0.4 µg/mL,> 20.8 µg/mL
O=C1Nc2ncc(/C=C/C(=O)N3CC4C=C(c5ccccc5)CC4C3)cc2CO1 (stereo not shown) [compound 51],903 nM,0.35 µg/mL,> 250 °C,0.71 µg/mL,> 9.73 µg/mL

# Now from value to compound, other results behind:
IC50 [2],IC90 [3],melting point,IC90 (S. aureus),Compound,CC50 at 72 h [1]
1810 nM,0.21 µg/mL,238 °C,0.79 µg/mL,O=C(Nc1ccc(/C=C/C(=O)N2CC3C=C(c4ccccc4)CC3C2)cn1)c1cccnc1 (stereo not shown) [Cpd. No. 3],1.23 µg/mL
1820 nM,0.17 µg/mL,214 °C,0.67 µg/mL,Cc1cncc(C(=O)Nc2ccc(/C=C/C(=O)N3CC4C=C(c5ccccc5)CC4C3)cn2)c1 (stereo not shown) [compound 1],> 4.5 µg/mL
7590 nM,0.21 µg/mL,202 °C,1.66 µg/mL,O=C(Nc1ccc(/C=C/C(=O)N2CC3C=C(c4ccccc4)CC3C2)cn1)c1ccoc1 (stereo not shown) [compound 2],7.57 µg/mL
1070 nM,0.34 µg/mL,251 °C and 251.61 °C,0.5 µg/mL,CC(=O)Nc1ccc(/C=C/C(=O)N2CC3C=C(c4ccccc4)CC3C2)cn1 (stereo not shown) [compound 10],> 9.38 µg/mL
2040 nM,0.5 µg/mL,184 °C,1.58 µg/mL,O=C(Nc1ccc(/C=C/C(=O)N2CC3C=C(c4ccccc4)CC3C2)cn1)c1ccncc1 (stereo not shown) [compound 12],> 11 µg/mL
3560 nM,0.76 µg/mL,120 °C,5.36 µg/mL,O=C(Nc1ccc(/C=C/C(=O)N2CC3C=C(c4ccccc4)CC3C2)cn1)c1ccccc1 (stereo not shown) [compound 13],> 10.9 µg/mL
1730 nM,0.86 µg/mL,239.7 °C,2.65 µg/mL,O=C(Cc1ccncc1)Nc1ccc(/C=C/C(=O)N2CC3C=C(c4ccccc4)CC3C2)cn1 (stereo not shown) [compound 14],> 11.3 µg/mL
1440 nM,1.33 µg/mL,> 250 °C,1.4 µg/mL,O=C(Cc1ccncc1)Nc1ccc(/C=C/C(=O)N2CC3C=C(c4ccncc4)CC3C2)cn1 (stereo not shown) [compound 17],> 4.51 µg/mL
